Experiment [1] concerns the target D(3) dopamine receptor (Homo sapiens) (UniProt P35462).
Description: Displacement of [3H]7-OH-DPAT from human Dopamine receptor D3
Experiment [2] has as its target D(2) dopamine receptor (Homo sapiens) (UniProt P14416).
Description: Displacement of [3H]spiperone from human Dopamine receptor D2
The target of experiment [3] is T1, D(4) dopamine receptor (Homo sapiens) (UniProt P21917).
T1 sequence (whole entry): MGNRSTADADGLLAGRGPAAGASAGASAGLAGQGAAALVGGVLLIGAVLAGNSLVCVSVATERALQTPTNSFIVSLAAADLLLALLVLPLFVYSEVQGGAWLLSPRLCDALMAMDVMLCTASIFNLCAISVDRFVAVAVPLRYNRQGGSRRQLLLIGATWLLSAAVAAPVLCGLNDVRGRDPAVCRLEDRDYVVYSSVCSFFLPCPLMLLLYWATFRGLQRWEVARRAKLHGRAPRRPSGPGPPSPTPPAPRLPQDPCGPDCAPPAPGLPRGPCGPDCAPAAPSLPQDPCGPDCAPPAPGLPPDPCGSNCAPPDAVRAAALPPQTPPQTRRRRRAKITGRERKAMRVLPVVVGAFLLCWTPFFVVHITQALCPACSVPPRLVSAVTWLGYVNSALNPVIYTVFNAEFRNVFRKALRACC
Description: Displacement of [3H]spiperone from human Dopamine receptor D4

SMILES strings stand for the structures.

For orientation: pKi means −log10 of the Ki, conventionally taken in molar units.

Chain of D(3) dopamine receptor (Homo sapiens) (P35462 whole entry): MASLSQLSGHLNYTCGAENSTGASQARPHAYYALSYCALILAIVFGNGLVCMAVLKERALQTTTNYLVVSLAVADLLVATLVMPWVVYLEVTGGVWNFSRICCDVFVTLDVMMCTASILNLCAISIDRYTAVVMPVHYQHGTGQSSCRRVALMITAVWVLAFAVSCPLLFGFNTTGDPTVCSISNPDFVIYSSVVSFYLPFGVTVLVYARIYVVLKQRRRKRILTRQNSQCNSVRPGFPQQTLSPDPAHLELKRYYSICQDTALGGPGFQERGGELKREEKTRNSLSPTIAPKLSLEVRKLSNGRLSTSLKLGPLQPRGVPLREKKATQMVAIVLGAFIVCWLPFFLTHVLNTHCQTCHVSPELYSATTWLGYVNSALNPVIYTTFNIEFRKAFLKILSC
Chain of D(2) dopamine receptor (Homo sapiens) (P14416 whole entry): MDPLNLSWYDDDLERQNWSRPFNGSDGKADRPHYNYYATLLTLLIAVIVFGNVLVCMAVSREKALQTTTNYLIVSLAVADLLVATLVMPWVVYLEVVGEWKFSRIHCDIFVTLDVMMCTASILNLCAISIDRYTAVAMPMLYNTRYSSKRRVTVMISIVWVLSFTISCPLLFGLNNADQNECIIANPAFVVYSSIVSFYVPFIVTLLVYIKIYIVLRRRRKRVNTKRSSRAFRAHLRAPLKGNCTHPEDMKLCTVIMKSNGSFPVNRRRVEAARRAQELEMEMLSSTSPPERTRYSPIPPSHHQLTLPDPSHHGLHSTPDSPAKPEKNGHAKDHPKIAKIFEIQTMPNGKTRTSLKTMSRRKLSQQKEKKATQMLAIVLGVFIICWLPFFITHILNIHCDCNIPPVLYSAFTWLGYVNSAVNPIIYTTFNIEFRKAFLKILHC

Regarding `O=C(CCCN1CCC(O)(Cc2ccc(Cl)cc2)CC1)c1ccc(F)cc1`, the values for the pKi in experiment [1], in experiment [2] and in experiment [3] were 8.05, 8.1 and 7.23, respectively.
The like results for `O=C(CCCN1CCC(CCO)(c2ccc(Cl)cc2)C1)c1ccc(F)cc1` (stereo not given) were, in that order, 7.49, 7.64 and 6.71.
For `CN(CCCC(=O)c1ccc(F)cc1)CCCC(O)c1ccc(Cl)cc1` (stereo not given), the pKi worked out at 6.79 in experiment [1] and 6.72 in experiment [3].
For `O=C(CCCN1CCC(CO)(c2ccc(Cl)cc2)C1)c1ccc(F)cc1` (stereo not given), the pKi in experiment [1] was 6.78; in experiment [2] it was 7.36; in experiment [3] it was 7.62.
Turning to `O=C(CCCN1CCC(c2ccc(Cl)cc2)C1)c1ccc(F)cc1` (stereo not given), the negative-log Ki (pKi) in experiment [2] stood at 7.81; in experiment [3] it was 7.82.
Take `O=C(CCCN1CCC(C(O)c2ccc(Cl)cc2)CC1)c1ccc(F)cc1` (stereo not given): the pKi in experiment [1] was determined as 7.11; in experiment [2], 7.62; in experiment [3], 6.91.
The like results for `O=C(CCCN1CCC(CO)(c2ccc(Cl)cc2)CC1)c1ccc(F)cc1` were, in that order, 6.96, 7.81 and 7.11.
Compound `O=C(CCCN1CCCC(O)(c2ccc(Cl)cc2)CC1)c1ccc(F)cc1` (stereo not given) displayed a pKi in experiment [2] of 8.96.
Regarding `O=C(CCC[n+]1ccc(-c2ccc(Cl)cc2)cc1)c1ccc(F)cc1`, the pKi in experiment [1], in experiment [2] and in experiment [3] was less than 6 in each case.
For the compound `O=C(CCCN1CCC(c2ccc(Cl)cc2)CC1)c1ccc(F)cc1`, the pKi in experiment [1] stood at 7.34; in experiment [3], 7.59.

For the origin of these results see ChEMBL document CHEMBL1148442, “Design, synthesis, and evaluation of metabolism-based analogues of haloperidol incapable of forming MPP+-like species” (J Med Chem, 2004).
